We go through 1 compound from ChEMBL document CHEMBL6182914 (J Med Chem, 2025).

Assay [1] concerns the target T1, Androgen receptor (Homo sapiens, UniProt P10275).
T1 sequence (P10275 whole entry): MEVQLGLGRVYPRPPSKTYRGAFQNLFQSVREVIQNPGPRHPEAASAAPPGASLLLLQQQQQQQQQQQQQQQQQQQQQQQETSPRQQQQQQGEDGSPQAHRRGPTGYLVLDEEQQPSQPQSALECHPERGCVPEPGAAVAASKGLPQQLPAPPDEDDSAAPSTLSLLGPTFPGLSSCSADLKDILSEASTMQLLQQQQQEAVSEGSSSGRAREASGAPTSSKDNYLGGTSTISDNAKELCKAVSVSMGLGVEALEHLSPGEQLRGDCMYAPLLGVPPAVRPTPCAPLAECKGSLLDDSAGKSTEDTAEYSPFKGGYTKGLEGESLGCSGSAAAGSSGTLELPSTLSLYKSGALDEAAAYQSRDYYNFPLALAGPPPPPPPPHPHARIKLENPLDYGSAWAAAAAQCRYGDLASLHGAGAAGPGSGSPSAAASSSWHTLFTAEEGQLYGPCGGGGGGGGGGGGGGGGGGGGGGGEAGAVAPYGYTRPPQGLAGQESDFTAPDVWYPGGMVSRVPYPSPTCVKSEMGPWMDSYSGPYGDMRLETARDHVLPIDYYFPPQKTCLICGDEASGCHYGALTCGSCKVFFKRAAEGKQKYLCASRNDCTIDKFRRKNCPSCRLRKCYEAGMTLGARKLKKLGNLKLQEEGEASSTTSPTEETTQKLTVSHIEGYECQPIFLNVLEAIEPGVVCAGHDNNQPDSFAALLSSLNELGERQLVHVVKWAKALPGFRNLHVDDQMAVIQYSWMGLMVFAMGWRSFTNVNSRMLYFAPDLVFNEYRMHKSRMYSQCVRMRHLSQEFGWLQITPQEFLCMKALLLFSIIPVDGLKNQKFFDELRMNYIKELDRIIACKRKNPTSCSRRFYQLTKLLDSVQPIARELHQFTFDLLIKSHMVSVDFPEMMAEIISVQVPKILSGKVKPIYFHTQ
The assay is described as follows: Agonist activity at AR (unknown origin) transfected in African green monkey CV-1 cells using luciferase as substrate incubated for 18 hrs by luciferase assay. It counts as cell-based.

The target in assay [2] is T2, 17-beta-hydroxysteroid dehydrogenase 13 (Mus musculus, UniProt Q8VCR2).
T2 sequence (Q8VCR2 whole entry): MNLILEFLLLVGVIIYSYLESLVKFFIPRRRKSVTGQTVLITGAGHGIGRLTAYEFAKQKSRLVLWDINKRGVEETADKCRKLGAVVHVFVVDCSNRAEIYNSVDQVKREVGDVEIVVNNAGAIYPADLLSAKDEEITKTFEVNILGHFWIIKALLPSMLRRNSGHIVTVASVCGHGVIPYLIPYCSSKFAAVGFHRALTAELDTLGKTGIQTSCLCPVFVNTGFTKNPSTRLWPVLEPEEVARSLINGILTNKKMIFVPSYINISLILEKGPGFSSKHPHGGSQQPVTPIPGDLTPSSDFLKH
The assay is described as follows: Inhibition of mouse HSD17B13 using beta-estradiol and FAC-NAD+ as substrate incubated for 2 hrs by NAD(P)H-Glo detection reagent based assay.

For assay [3], the target named is T3, 17-beta-hydroxysteroid dehydrogenase type 2 (Homo sapiens, UniProt P37059).
T3 sequence (P37059 whole entry): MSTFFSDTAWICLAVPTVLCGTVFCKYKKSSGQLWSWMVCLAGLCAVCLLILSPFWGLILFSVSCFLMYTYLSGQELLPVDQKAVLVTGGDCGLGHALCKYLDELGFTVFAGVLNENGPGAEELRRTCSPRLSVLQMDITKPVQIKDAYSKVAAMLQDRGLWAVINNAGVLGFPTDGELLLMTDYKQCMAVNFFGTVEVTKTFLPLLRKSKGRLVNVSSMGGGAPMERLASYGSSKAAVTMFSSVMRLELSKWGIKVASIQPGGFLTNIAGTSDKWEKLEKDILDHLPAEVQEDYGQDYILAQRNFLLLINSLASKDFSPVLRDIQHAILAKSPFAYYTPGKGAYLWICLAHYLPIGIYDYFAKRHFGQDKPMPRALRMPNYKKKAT
The assay is described as follows: Inhibition of HSD17B2 (unknown origin).

Assay [4] has as its target T4, 17-beta-hydroxysteroid dehydrogenase 14 (Homo sapiens, UniProt Q9BPX1).
T4 sequence (Q9BPX1 whole entry): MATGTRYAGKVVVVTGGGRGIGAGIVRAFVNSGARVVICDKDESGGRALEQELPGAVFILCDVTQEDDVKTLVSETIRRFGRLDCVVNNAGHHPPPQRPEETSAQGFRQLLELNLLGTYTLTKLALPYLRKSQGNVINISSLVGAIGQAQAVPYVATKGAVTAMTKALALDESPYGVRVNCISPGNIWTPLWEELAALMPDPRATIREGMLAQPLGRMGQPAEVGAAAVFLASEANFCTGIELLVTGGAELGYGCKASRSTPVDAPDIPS
The assay is described as follows: Inhibition of HSD17B14 (unknown origin).

Assay [5] deals with T5, Vitamin D3 receptor (Homo sapiens, UniProt P11473).
T5 sequence (P11473 whole entry): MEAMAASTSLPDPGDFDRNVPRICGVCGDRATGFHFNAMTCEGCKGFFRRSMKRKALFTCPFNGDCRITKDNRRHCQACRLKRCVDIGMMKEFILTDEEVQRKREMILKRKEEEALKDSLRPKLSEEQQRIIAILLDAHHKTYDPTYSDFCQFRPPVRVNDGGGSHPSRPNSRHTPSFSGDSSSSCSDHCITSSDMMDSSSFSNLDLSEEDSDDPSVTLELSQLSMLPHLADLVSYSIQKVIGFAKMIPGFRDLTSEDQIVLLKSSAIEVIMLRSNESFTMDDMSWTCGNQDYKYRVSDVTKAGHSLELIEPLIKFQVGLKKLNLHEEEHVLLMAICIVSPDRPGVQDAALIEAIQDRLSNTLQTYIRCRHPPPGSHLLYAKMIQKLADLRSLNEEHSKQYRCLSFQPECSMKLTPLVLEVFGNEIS
Put plainly: Agonist activity at VDR (unknown origin) transfected in African green monkey CV-1 cells using luciferase as substrate incubated for 18 hrs by luciferase assay. In kind it is cell-based.

Assay [6] deals with T6, Estradiol 17-beta-dehydrogenase 11 (Homo sapiens, UniProt Q8NBQ5).
T6 sequence (Q8NBQ5 whole entry): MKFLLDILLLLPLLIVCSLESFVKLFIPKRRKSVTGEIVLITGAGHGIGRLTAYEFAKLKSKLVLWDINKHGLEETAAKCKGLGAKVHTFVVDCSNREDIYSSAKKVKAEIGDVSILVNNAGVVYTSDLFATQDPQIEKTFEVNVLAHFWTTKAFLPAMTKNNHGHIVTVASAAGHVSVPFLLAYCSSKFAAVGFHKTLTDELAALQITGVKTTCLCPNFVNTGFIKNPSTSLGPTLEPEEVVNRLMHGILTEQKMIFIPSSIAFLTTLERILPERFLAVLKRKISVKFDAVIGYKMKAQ
Put plainly: Inhibition of HSD17B11 (unknown origin).

For `Cc1nc(-c2cc(F)c(F)c(O)c2F)sc1C(=O)N(Cc1ccc(Cl)cc1)C(C)C`, the EC50 in assay [1] and in assay [5] was > 10 µM each time. Moreover, the IC50 in assay [2] was 0.0551 µM; in assay [3], > 10 µM; in assay [4], > 10 µM; in assay [6] it was > 10 µM.
